We go through one substance from patent US20100069415A1, “2,6-DIPHENYL-4,8-DIAZOADAMANTAN-1-ONE AND DERIVATIVES THEREOF, PROCESS OF MANUFACTURE AND USE FOR THE FORMULATION OF SOLUTIONS WITH STERILIZING AND DISINFECTANT EFFECT” (PIETRO AFFAITATI, priority 2006, published 2010).

The nature of the series: Solubility characterization of 2,6-diphenyl-4,8-diazoadamantan-1-one. The class given is physicochemical. The text has this: This molecule is soluble in propylene glycol and apolar organic solvents, whereas it is insoluble in water and ethanol.

In the case of 2,6-diphenyl-4,8-diazoadamantan-1-one, where the note is “solvent: apolar organic solvents”, the “solubility in apolar organic solvents” value is “soluble”. Besides, the solubility in ethanol entry (solvent: ethanol) was “insoluble”. Where the note is “solvent: propylene glycol”, the “solubility in propylene glycol” value was “soluble”. Besides, the solubility in water result (solvent: water) was “insoluble”.
